For data set [1], the system named is PNT1A immortalized normal prostate cell line. Briefly: Tetrazolium dye proliferation (WST-1) assay in PNT1A cells. It is filed as cell-based. The conditions noted are these: Homo sapiens, 120 h, compared with 0.1 % DMSO vehicle control group, 5 days incubation, read-out: proliferation inhibitory effect. How it is done: (§1) Determination of the ability of compound of formula (I) and combinations between compound of formula (I) and certain therapeutic compounds described herein to inhibit the proliferation of target cells was assayed in vitro against breast tumour cells.
(§2) MCF-7 cells were purchased from ATCC. PNT1A cells were purchased from ECACC. The cells were grown in a subconfluent condition to maintain a logarithmic growth phase. The cells were dislodged for passage using trypsin-EDTA.
(§3) The proliferation of the cell lines was evaluated by using the commercial WST-1 proliferation measurement reagent. Cells from exponentially growing cultures were plated on the 96 well plates at the appropriate seeding density in the optimal medium to give logarithmic growth over the course of the assay. […] Following incubation the absorbance at a wavelength of 450 nm was measured from each well using a multilabel counter. The absorbance at wavelength 450 nm correlates linearly to number of viable cells in the well.
(§4) The means and standard deviations for parallel samples were calculated and plotted as a graph.
(§5) The antiproliferative activity of compound of formula (I) was evaluated in vitro using tetrazolium dye proliferation assay in different cell lines: MCF-7 (breast cancer cell line, derived from pleura fluid) and PNT1A (normal prostate cell line, SV40 immortalized).
In general terms: Tetrazolium dyes change colour on reduction, which living cells bring about.

The test system of data set [2] is pancreatic cancer cells. Kind of data set: Effect on other cancer cells: pancreatic. The class given is cell-based.
The test system of data set [3] is MCF-7 breast cancer cell line. Kind of data set: Tetrazolium dye proliferation (WST-1) assay in MCF-7 cells. It is filed as cell-based. The conditions noted are these: 5 days incubation. How it is done: as §1, §2, §3, §4, §5
Data set [4] concerns L1210 leukemia cultured cells. The conditions noted are these: prior art (Kato et al 1986; Takamura et al 1989); cited from earlier work.
Data set [5] deals with prostate cancer cells. Kind of data set: Effect on other cancer cells: prostate. The class given is cell-based.
For data set [6], the system named is Ehrlich ascites tumour. The following applies: prior art (Kato et al 1986; Takamura et al 1989); cited from earlier work.
Data set [7] has as its system HL-60 cells. The following applies: prior art (Meisel et al. 1998; Mlejnek et al. 2005); cited from earlier work.
Data set [8] deals with malignant trophoblastic cell lines. The conditions noted are these: prior art (Trewyn et al. 1979); cited from earlier work.

Regarding `CN(C)c1ncnc2c1ncn2[C@@H]1O[C@H](CO)[C@@H](O)[C@H]1O` [Compound I, N6,N6-Dimethyladenosine], the inhibition at 1 µM in data set [1] was found to be 17.4 ± 5.3%; in data set [3] (Homo sapiens, MCF7, 120 h, compared with 0.1 % DMSO vehicle control group, 1 microM, read-out: proliferation inhibitory effect) it was 91.6 ± 2.1%. In data set [2], the “effect on pancreatic cancer cells” value is “no effect was detected”. Besides, in data set [3] (relative to Gemcitabine (= 0)), the “proliferation inhibitory effect compared with Gemcitabine” value is 62.6±9.4%. Moreover, the “antitumour activity in L1210 leukemia cultured cells” value in data set [4] was “inactive”. Further, the “effect on prostate cancer cells” value in data set [5] was “no effect was detected”. In addition, the “antitumour activity against Ehrlich ascites tumour” value in data set [6] was “inactive”. The “apoptosis induction on HL-60 cells” value in data set [7] was “apoptotic inductor”. Besides, in data set [8], the “cytotoxicity to malignant trophoblastic cell lines” value is reported as “cytotoxic”.

Source of the values: patent EP2711008A1, “N6,N6-dimethyladenosine for use in treating or preventing primary and metastatic breast cancer” (priority 2012, dated 2014).
